# Values of other authors in US20210330644A1, “COMBINATION THERAPY FOR TREATING METASTATIC PROSTATE CANCER” (Progenics Pharmaceuticals, Inc, priority 2018, published 2021).
# System: mCRPC
structure (smiles),measurement,setting,value
CNC(=O)c1ccc(N2C(=S)N(c3ccc(C#N)c(C(F)(F)F)c3)C(=O)C2(C)C)cc1F [enzalutamide],proportion of patients with >50% decline in PSA from baseline,after progression under abiraterone therapy of any duration,30-51%
same,benefit in abiraterone-resistant patients,majority of data,limited benefit
